# Laboratory results published in publication PMC5622107, “Small molecule inhibition of cGAS reduces interferon expression in primary macrophages from autoimmune mice” (Nature Communications, 2017).
# Where two headings read alike, the source gives them in different places.
# How the values were obtained:
# [1] = molecular target: T1, mouse cGAS (Mus musculus, UniProt Q8C6L5); assay: RapidFire mass spectrometry (RF-MS) cGAS enzymatic assay, cGAMP product formation; format: biochemical; conditions: for inhibition at 12.5 µM: read-out: % inhibition at 12.5 µM
# T1 construct: recombinant full-length mouse cGAS in reaction buffer; His6-SUMO (N, cleaved yes); made in house; host or cells: E. coli BL21(DE3) RIL
# Protocol: The liquid was collected at the well bottom using centrifugation for 30 s at 180×g. […] Plates were centrifuged for 30 s at 180×g to collect all liquid at the bottom of the wells. […] The reaction was stopped by addition of 65 µl of 0.5% (v/v) formic acid per well. The plates were centrifuged for 30 s at 180×g and sealed with a Velocity11 PlateLoc thermal plate sealer.
# The solvent used for loading/washing process was an aqueous solution of 5 mM ammonium acetate, pH 10. […] Each sample of approximately 35 µl were aspirated from a 384-well plate and separated using a Graphitic carbon Type D cartridge. After each sample was loaded onto the cartridge it was washed for 4 s at 1.5 ml min^−1 using the aqueous solvent. ATP, GTP and cGAMP were eluted for 5 s using the organic solvent at a flow rate of 1.5 ml min^−1. The cartridge was then re-equilibrated with the aqueous solvent for 5 s at a flow rate of 1.5 ml min^−1. All samples were analyzed using a negative ionization mode in the mass spectrometer, with a gas temperature of 350 °C, nebulizer pressure of 35 psig, gas flow rate of 15 l min^−1. […] The Agilent RapidFire Integrator software was used to calculate the area under the curve (AUC) of the extracted ion counts for each analyte. Data points represent values of product formation. Catalytic rates expressed as percent product formation were calculated using the AUC of cGAMP and using the AUC’s of ATP and GTP to normalize for variations in the capacity of the solid phase extraction column during a screening run, as shown in the following formula: product formation (%) = [(AUCcGAMP × 100)/(AUCcGAMP + ½ AUCATP + ½ AUCGTP)].
# To determine the percent inhibition of mouse cGAS the data was normalized against the positive control (column 24) and negative control (column 23). […] The quality of the screen was assessed by Z′ factor[57] calculated as follows: Z′ = 1−[3∗(standard deviation positive control + standard deviation negative control)/(average positive control—average negative control)].
# [2] = test system: 45-bp dsDNA; assay: DNA intercalation: acridine orange displacement from dsDNA by fluorescence polarization; format: binding; conditions: Supplementary Table 2; for % intercalation at 30 µM: acridine orange displacement compared to mitoxantrone; for Polarization: compound 30 µM
# Protocol: Ten microliters of HEN buffer (10 mM HEPES pH 7.5, 1 mM EDTA pH 7.5, 100 mM NaCl) were dispensed per well using a Thermo Multidrop Combi dispenser (Thermo Scientific). The liquid was collected at the well bottom using centrifugation for 30 s at 180×g. […] The final concentration of compounds in the assay was 30 µM. […] The liquid was collected at the well bottom using centrifugation for 30 s at 180×g. […] The liquid was collected at the well bottom using centrifugation for 30 s at 180 × g and the plates were incubated for 30 min. Mitoxantrone, a known DNA intercalator was used at 50 µM as a positive control, while DMSO alone was used as negative control. FP was measured using a Biotek Synergy Neo plate reader. […] All FP values are expressed in millipolarization (mP) units. The mP values were calculated using the equation mP = 1000 × [(I S−I SB)−(I P−I PB)]/[I S—I SB) + (I P−I PB)], where I S and […] to the parallel and perpendicular emission intensity, respectively, and I SB and I SP corresponds to parallel emission intensity perpendicular emission intensity of the buffer, respectively. The experimental G-factor, defined as G = I S/I P, was set to 1.0 in all experiments.
# [3] = Supplementary Table 2, batch of compounds stored in the screening library, read-out: IC50
# [4] = Supplementary Table 2, compound 12.5 µM
# T1 sequence (Q8C6L5 whole entry): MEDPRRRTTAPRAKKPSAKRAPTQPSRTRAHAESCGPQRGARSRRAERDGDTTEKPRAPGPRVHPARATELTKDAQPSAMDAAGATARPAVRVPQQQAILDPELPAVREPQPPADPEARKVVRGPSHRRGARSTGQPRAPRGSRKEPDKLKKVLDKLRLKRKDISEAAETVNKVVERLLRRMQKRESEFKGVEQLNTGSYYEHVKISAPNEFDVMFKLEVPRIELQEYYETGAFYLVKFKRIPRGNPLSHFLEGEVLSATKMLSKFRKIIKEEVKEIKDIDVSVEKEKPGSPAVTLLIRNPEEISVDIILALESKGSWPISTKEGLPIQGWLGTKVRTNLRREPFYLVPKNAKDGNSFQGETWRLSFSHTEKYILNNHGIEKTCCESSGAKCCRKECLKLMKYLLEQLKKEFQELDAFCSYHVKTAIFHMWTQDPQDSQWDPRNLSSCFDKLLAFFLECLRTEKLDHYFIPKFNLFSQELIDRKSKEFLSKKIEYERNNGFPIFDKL
structure (smiles),measurement,setting,value
CC[C@@]1(O)C[C@H](O[C@H]2C[C@H](N(C)C)[C@H](O)[C@H](C)O2)c2c(cc3c(c2O)C(=O)c2c(O)cccc2C3=O)[C@H]1C(=O)OC [RU891],IC50,[1]; [3],1.42 µM
same,inhibition at 12.5 µM,[1]; [4],98%
same,% intercalation at 30 µM,[2],90.6%
same,Polarization,[2],65 mP
O=C(O)COc1cc(Cl)c(Cl)cc1Cl [RU1535],IC50,[1]; [3],0.55 µM
same,inhibition at 12.5 µM,[1]; [4],98%
same,% intercalation at 30 µM,[2],3.4%
same,Polarization,[2],244 mP
CCOc1ccc2nc3cc(N)ccc3c(N)c2c1 [RU1667],IC50,[1]; [3],1.01 µM
same,% inhibition at 12.5 µM,[1]; [4],92%
same,% intercalation at 30 µM,[2],54.5%
same,Polarization,[2],139 mP
S=c1[nH]nc(-c2sc3ccccc3c2Cl)o1 [RU3433],IC50,[1]; [3],6.12 µM
same,inhibition at 12.5 µM,[1]; [4],92%
same,Polarization,[2],288 mP
CCOC(=O)c1n[nH]c2c1C(=O)N(CC)C2=O [RU4893],IC50,[1]; [3],6.42 µM
same,inhibition at 12.5 µM,[1]; [4],62%
same,% intercalation at 30 µM,[2],-1.4%
same,Polarization,[2],254 mP
O=c1[nH]n2c(=O)c3ccccc3nc2c2ccccc12 [RU5004],IC50,[1]; [3],6.49 µM
same,inhibition at 12.5 µM,[1]; [4],90%
same,% intercalation at 30 µM,[2],-2.1%
same,Polarization,[2],255 mP
O=C(O)C1CSC(c2cc(Br)c(O)c(Br)c2)N1 (centres unmarked) [RU5512],IC50,[1]; [3],3 µM
same,inhibition at 12.5 µM,[1]; [4],87%
same,% intercalation at 30 µM,[2],-6.3%
same,Polarization,[2],264 mP
Cc1nc2nc(C)c(Br)c(O)n2n1 [RU6753],IC50,[1]; [3],7.99 µM
same,inhibition at 12.5 µM,[1]; [4],69%
same,% intercalation at 30 µM,[2],-0.5%
same,Polarization,[2],252 mP
COc1cccc2c1C(=O)c1c(O)c3c(c(O)c1C2=O)C[C@@](O)(C(=O)CO)C[C@@H]3O[C@H]1C[C@H](N)[C@H](O)[C@H](C)O1 [RU24114],IC50,[1],0.82 µM
same,inhibition at 12.5 µM,[1]; [4],96%
same,Polarization,[2],53 mP
COc1cccc2c1C(=O)c1c(O)c3c(c(O)c1C2=O)C[C@@](O)(C(C)=O)C[C@@H]3OC1CC(N)C(O)C(C)O1 (some centres unmarked) [RU24146],IC50,[1]; [3],0.69 µM
same,inhibition at 12.5 µM,[1]; [4],93%
same,Polarization,[2],55 mP
COc1cccc2c1C(=O)c1c(O)c3c(c(O)c1C2=O)C[C@@](O)(C(C)=O)C[C@@H]3O[C@H]1C[C@H](N)[C@H](O)[C@H](C)O1 [RU83653],IC50,[1]; [3],1.81 µM
same,inhibition at 12.5 µM,[1]; [4],91%
same,% intercalation at 30 µM,[2],98.0%
same,Polarization,[2],50 mP
CC(=O)[C@]1(O)Cc2c(O)c3c(c(O)c2[C@@H](O[C@H]2C[C@H](N)[C@H](O)[C@H](C)O2)C1)C(=O)c1ccccc1C3=O [RU84314],IC50,[1]; [3],1.45 µM
same,inhibition at 12.5 µM,[1]; [4],90%
same,% intercalation at 30 µM,[2],87.2%
same,Polarization,[2],72 mP
N#CCC(=O)Nc1sc2c(c1C(N)=O)CCCC2 [RU93687],IC50,[1]; [3],9.11 µM
same,inhibition at 12.5 µM,[1]; [4],91%
same,% intercalation at 30 µM,[2],-5.8%
same,Polarization,[2],263 mP
CC(C)OC(=O)C(C#N)=Cc1ccc([N+](=O)[O-])o1 [RU94102],IC50,[1]; [3],8.14 µM
same,inhibition at 12.5 µM,[1]; [4],64%
same,% intercalation at 30 µM,[2],-8.1%
same,Polarization,[2],267 mP
N#CC1=C(N)SC(N)=C(C#N)C1c1ccc([N+](=O)[O-])cc1 [RU107796],IC50,[1]; [3],8.66 µM
same,inhibition at 12.5 µM,[1]; [4],62%
same,% intercalation at 30 µM,[2],-7.6%
same,Polarization,[2],266 mP
O=C(CCl)Nc1nc(-c2c[nH]c3ccccc23)cs1 [RU114757],IC50,"[1]; Fig. 1e, four prioritized screening hits, confirmed with independent lots of compound, read-out: IC50",1.4 µM
same,IC50,[1]; [3],5.38 µM
same,inhibition at 12.5 µM,[1]; [4],72%
same,% intercalation at 30 µM,[2],-10.1%
same,Polarization,[2],271 mP
O=C1NC(=S)SC1=Cc1ccccc1F [RU116287],IC50,[1]; [3],6.51 µM
same,inhibition at 12.5 µM,[1]; [4],63%
same,% intercalation at 30 µM,[2],-9.8%
same,Polarization,[2],271 mP
COc1cccc2c1C(=O)c1c(O)c3c(c(O)c1C2=O)C[C@@](O)(C(=O)CO)C[C@@H]3O[C@H]1C[C@H](N)[C@@H](O)[C@H](C)O1 [RU162145],IC50,[1],0.58 µM
same,inhibition at 12.5 µM,[1]; [4],98%
same,% intercalation at 30 µM,[2],96.5%
same,Polarization,[2],53 mP
CCC1=NN2C(=N)/C(=C/c3ccc(O)cc3)C(=O)N=C2S1 [RU169196],IC50,[1]; [3],4.25 µM
same,inhibition at 12.5 µM,[1]; [4],89%
same,% intercalation at 30 µM,[2],-7.5%
same,Polarization,[2],266 mP
CCC1=NN2C(=N)/C(=C/c3cccs3)C(=O)N=C2S1 [RU169248],IC50,[1]; [3],3.34 µM
same,inhibition at 12.5 µM,[1]; [4],97%
same,% intercalation at 30 µM,[2],-5.7%
same,Polarization,[2],262 mP
Cc1ccc(C(=O)c2nc3c(n2O)CCCCC3)cc1 [RU171395],IC50,[1]; [3],0.25 µM
same,inhibition at 12.5 µM,[1]; [4],90%
same,% intercalation at 30 µM,[2],-0.3%
same,Polarization,[2],251 mP
Cc1nnc(NC(=O)c2ccc(S(=O)(=O)Nc3cccc(C(F)(F)F)c3)o2)s1 [RU174368],IC50,[1]; [3],7.47 µM
same,inhibition at 12.5 µM,[1]; [4],76%
same,% intercalation at 30 µM,[2],5.6%
same,Polarization,[2],239 mP
NC(=O)N1C(=O)/C(=C(\O)c2cccs2)c2cc(Cl)ccc21 [RU187170],IC50,[1]; [3],6.09 µM
same,inhibition at 12.5 µM,[1]; [4],70%
same,Polarization,[2],276 mP
N#Cc1cc(I)c(O)c([N+](=O)[O-])c1 [RU187299],IC50,[1]; [3],0.58 µM
same,inhibition at 12.5 µM,[1]; [4],95%
same,% intercalation at 30 µM,[2],-2.8%
same,Polarization,[2],256 mP
O=C(Nc1ncc([N+](=O)[O-])s1)c1cccs1 [RU187339],IC50,[1]; [3],6.62 µM
same,inhibition at 12.5 µM,[1]; [4],86%
same,Polarization,[2],274 mP
N=C(N)NN=C1C=CC(=NNC(N)=S)C=C1 [RU187428],IC50,[1],9.93 µM
same,inhibition at 12.5 µM,[1]; [4],79%
same,Polarization,[2],164 mP
O=C(Nc1nncs1)c1cn(-c2ccccc2Br)nn1 [RU191669],IC50,[1]; [3],9.09 µM
same,inhibition at 12.5 µM,[1]; [4],71%
same,% intercalation at 30 µM,[2],-1.0%
same,Polarization,[2],253 mP
N#Cc1ccc(/C=C2\CS(=O)(=O)c3c(F)cccc3C2=O)cc1 [RU198755],IC50,[1]; [3],6.33 µM
same,inhibition at 12.5 µM,[1]; [4],63%
same,% intercalation at 30 µM,[2],-6.2%
same,Polarization,[2],263 mP
O=C1CN2C(=C1c1ccccc1)NC(=O)c1sc3ccccc3c12 [RU207450],IC50,[1]; [3],9.69 µM
same,inhibition at 12.5 µM,[1]; [4],70%
same,Polarization,[2],274 mP
CS(=O)(=O)c1ncc2c(n1)c(=O)c(C#N)c1[nH]c3ccccc3c(=O)n12 [RU207488],IC50,[1]; [3],4.68 µM
same,inhibition at 12.5 µM,[1]; [4],67%
same,Polarization,[2],272 mP
COC(=O)C1=NN2C(=NS(=O)(=O)c3ccccc32)N1 [RU209189],IC50,[1]; [3],4.44 µM
same,inhibition at 12.5 µM,[1]; [4],91%
same,% intercalation at 30 µM,[2],0.0%
same,Polarization,[2],251 mP
OCc1cn(-c2ccccc2Cl)nn1 [RU219771],IC50,[1]; [3],1.27 µM
same,inhibition at 12.5 µM,[1]; [4],94%
same,% intercalation at 30 µM,[2],-1.3%
same,Polarization,[2],253 mP
O=c1cc(CCn2cccn2)nc(-c2ccc(CN3CCC[C@@H]3CO)cc2)[nH]1 [RU234543],IC50,[1]; [3],6.76 µM
same,inhibition at 12.5 µM,[1]; [4],89%
same,% intercalation at 30 µM,[2],-9.3%
same,Polarization,[2],270 mP
